Measured values published in patent US7122540B2, “2-Phenyl substituted imidazotriazinones as phosphodiesterase inhibitors” (Bayer HealthCare AG, priority 1997, dated 2006).

Legend:
PDE I = assay: Inhibition of the phosphodiesterases in vitro: Ca2+-calmodulin-stimulated PDE I; format: biochemical, porcine or, preferably, bovine; conditions: concentration at which the reaction rate is reduced by 50%; CaCl2 and calmodulin added
Protocol: (§1) The cGMP-stimulated PDE II, the cGMP-inhibited PDE III and the cAMP-specific PDE IV were isolated either from porcine or bovine heart myocardium. The Ca^2+-calmodulin-stimulated PDE I was isolated from porcine aorta, porcine brain or, preferably, from bovine aorta. The cGMP-specific PDE V was obtained from porcine small intestine, porcine aorta, human platelets and, preferably, from bovine aorta. Purification was carried out by anion exchange chromatography over MonoQ® Pharmacia, essentially following the method of M. Hoey and Miles D. Houslay, Biochemical Pharmacology, Vol. 40, 193–202(1990) and C. Lugman et al., Biochemical Pharmacology, Vol. 35, 1743–1751(1986).
(§2) The enzyme activity is determined using a test mixture of 100 ml in 20 mM tris/HCI-buffer pH 7.5 containing 5 mM MgCl2, 0.1 mg/ml of bovine serum albumin and either 800Bq[^3H]cAMP or [^3H]cGMP. The final concentration of the nucleotides in question is 10^−6 mol/l. The reaction is initiated by addition of the enzyme and the amount of enzyme is such that during the incubation time of 30 min, approximately 50% of the substrate are converted. To test the cGMP-stimulated PDE II, [^3H]cAMP is used as substrate and 10^−6 mol/l of non-labelled cGMP are added to the mnixture. To test the Ca^2+-calmodulin-dependent PDE I, 1 mM of CaCl2 and […] are added to the reaction mixture. The reaction is quenched by addition of […] of acetonitrile containing 1 mM cAMP and 1 mM AMP. 100 ml of the reaction mixture are separated by HPLC, and the cleavage products are determined quantitatively on-line using a continuous scintillation counter. The substance concentration measured is the concentration at which the reaction rate is reduced by 50%. Additionally, the “phosphodiesterase [^3H] cAMP-SPA enzyme assay” and the “phosphodiesterase [^3H] cGMP-SPA enzyme assay” from Amersham Life Science were used for testing. The test was carried out according to the test protocol of the manufacturer. To determine the activity of PDE II, the [^3H]cAMP SPA assay was used, and 10^−6M cGMP were added to the reaction mixture to activate the enzyme. To measure PDE I, 10^−7M calmodulin and 1 mM CaCl2 were added to the reaction mixture. PDE V was measured using the [^3H]cGMP SPA assay.

PDE II = target: T1, PDE II (Bos taurus, UniProt P14099); assay: Inhibition of the phosphodiesterases in vitro: cGMP-stimulated PDE II; format: biochemical, porcine or bovine; conditions: [3H]cAMP substrate, 10^-6 mol/l cGMP added; concentration at which the reaction rate is reduced by 50%
T1 construct: isolated either from porcine or bovine heart myocardium; from tissue; host or cells: porcine or bovine heart myocardium
T1 sequence (P14099 1-921): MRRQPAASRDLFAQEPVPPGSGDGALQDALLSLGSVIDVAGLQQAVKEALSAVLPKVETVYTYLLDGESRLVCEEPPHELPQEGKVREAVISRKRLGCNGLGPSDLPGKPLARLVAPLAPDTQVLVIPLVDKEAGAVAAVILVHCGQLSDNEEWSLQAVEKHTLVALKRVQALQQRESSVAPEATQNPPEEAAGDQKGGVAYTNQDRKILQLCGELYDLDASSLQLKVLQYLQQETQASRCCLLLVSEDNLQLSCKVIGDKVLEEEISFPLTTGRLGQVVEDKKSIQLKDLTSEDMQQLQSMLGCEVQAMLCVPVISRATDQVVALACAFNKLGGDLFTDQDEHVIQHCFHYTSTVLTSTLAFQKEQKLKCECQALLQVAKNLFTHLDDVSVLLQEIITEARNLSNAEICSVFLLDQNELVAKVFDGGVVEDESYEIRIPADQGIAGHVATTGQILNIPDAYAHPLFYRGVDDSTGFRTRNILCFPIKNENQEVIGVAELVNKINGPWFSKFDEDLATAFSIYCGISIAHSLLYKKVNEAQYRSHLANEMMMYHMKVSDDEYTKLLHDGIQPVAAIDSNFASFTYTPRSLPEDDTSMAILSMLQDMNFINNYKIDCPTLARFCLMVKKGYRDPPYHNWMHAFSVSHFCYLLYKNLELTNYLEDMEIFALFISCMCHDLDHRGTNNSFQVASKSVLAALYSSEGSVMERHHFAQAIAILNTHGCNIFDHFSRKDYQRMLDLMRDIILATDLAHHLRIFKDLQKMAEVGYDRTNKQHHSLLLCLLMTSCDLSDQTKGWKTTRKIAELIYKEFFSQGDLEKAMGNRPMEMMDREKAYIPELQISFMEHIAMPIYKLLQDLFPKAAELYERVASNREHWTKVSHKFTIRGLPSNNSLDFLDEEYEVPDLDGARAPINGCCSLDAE
Protocol: as §1, §2

PDE V = target: T2, PDE V (Bos taurus, UniProt Q28156); assay: Inhibition of the phosphodiesterases in vitro: cGMP-specific PDE V; format: biochemical, porcine, human or, preferably, bovine; conditions: [3H]cGMP substrate; concentration at which the reaction rate is reduced by 50%
T2 construct: Purification was carried out by anion exchange chromatography over MonoQ; from tissue; host or cells: porcine small intestine, porcine aorta, human platelets or, preferably, bovine aorta
Protocol: The cGMP-stimulated PDE II, the cGMP-inhibited PDE III and the cAMP-specific PDE IV were isolated either from porcine or bovine heart myocardium. The Ca^2+-calmodulin-stimulated PDE I was isolated from porcine aorta, porcine brain or, preferably, from bovine aorta. The cGMP-specific PDE V was obtained from porcine small intestine, porcine aorta, human platelets and, preferably, from bovine aorta.
as §2

| IC50 (PDE I) | IC50 (PDE II) | IC50 (PDE V) | SMILES |
| --- | --- | --- | --- |
| 100 nM | > 1000 nM | 4 nM | CCCc1nc(C)c2c(=O)[nH]c(-c3cc(S(=O)(=O)N(CC)CC)ccc3OCC)nn12 [Example 32, N,N-Diethyl-4-ethoxy-3-(5-methyl-4-oxo-7-propyl-3,4-dihydro-imidazo[5,1-f][1,2,4]triazin-2-yl)benzenesulphonamide] |
| 300 nM | > 1000 nM | 10 nM | CCCc1nc(C)c2c(=O)[nH]c(-c3cc(S(=O)(=O)N4CCOCC4)ccc3OCC)nn12 [Example 260] |
| 50 nM | > 1000 nM | 3 nM | CCCc1nc(C)c2c(=O)[nH]c(-c3cc(S(=O)(=O)N(CCC)CCO)ccc3OCC)nn12 [Example 275] |
| – | > 1000 nM | – | CCCc1nc(C)c2c(=O)[nH]c(-c3cc(S(=O)(=O)N4CCN(CC)CC4)ccc3OCC)nn12 [Example 19, 2-[2-Ethoxy-5-(4-ethyl-piperazine-1-sulphonyl)-phenyl]-5-methyl-7-propyl-3H-imidazo[5,1-f][1,2,4]triazin-4-one] |
| 100 nM | > 1000 nM | 1 nM | CCCc1nc(C)c2c(=O)[nH]c(-c3cc(S(=O)(=O)N4CCC(O)CC4)ccc3OCC)nn12 [Example 26, 2-[2-Ethoxy-5-(4-hydroxy-piperidine-1-sulphonyl)-phenyl]-5-methyl-7-propyl-3H-imidazo[5,1-f][1,2,4]triazin-4-one] |

| SMILES | IC50 (PDE I) | IC50 (PDE II) | IC50 (PDE V) |
| --- | --- | --- | --- |
| CCCc1nc(C)c2c(=O)[nH]c(-c3cc(S(=O)(=O)N4CCN(C)CC4)ccc3OCC)nn12 [Example 16, 2-[2-Ethoxy-5-(4-methyl-piperazine-1-sulphonyl)-phenyl]-5-methyl-7-propyl-3H-imidazo[5,1-f][1,2,4]triazin-4-one] | 300 nM | > 1000 nM | 2 nM |
| CCCc1nc(C)c2c(=O)[nH]c(-c3cc(S(=O)(=O)N4CCN(CCO)CC4)ccc3OCC)nn12 [Example 27, 2-{2-Ethoxy-5-[4-(2-hydroxy-ethyl)-piperazine-1-sulphonyl]-phenyl}-5-methyl-7-propyl-3H-imidazo[5,1-f][1,2,4]triazin-4-one] | 200 nM | > 1000 nM | 3 nM |
